IC50 data for eleven compounds are collected here from patent publication US10787441B2, “Hepatitis C virus inhibitors” (priority 2016, dated 2020).

Molecules are shown by their SMILES. Read-outs that look alike come from different tables or passages of the source.

One may read the IC50 as the point on the concentration scale where inhibition reaches its midpoint.

Common to all, as to format: cell-based, Hepatitis C virus
The test system of test [1] is HCV genotype 1a H77 strain subgenomic luciferase replicon. Description: HCV replicon assay, genotype 1a. As for the experimental part: (§1) The HCV luciferase replicon assay measures the ability of a test compound to inhibit HCV replication in cell culture after 3 days of treatment in a human hepatoma cell line (Huh-7) bearing an HCV replicon containing a luciferase-neomycin phosphotransferase fusion gene. The inhibition of HCV replication was measured by quantification of luciferase protein expression. Briefly, Huh-7 cells containing either the HCV genotype 1a H77 strain or genotype 1b Con1 strain subgenomic luciferase replicon (H1a-luc or Zluc, respectively) were grown in DMEM containing glucose, L-glutamine and sodium pyruvate, 10% fetal bovine serum (FBS), 100 IU/mL penicillin, 100 μg/mL streptomycin, 2 mM GlutaMAX, non-essential amino acids and 0.25 (H1a-luc) or 0.5 (Zluc) mg/mL G418. GlutaMAX was obtained from Invitrogen, Corp.; all other media reagents were obtained from Mediatech, Inc. For dose-response testing, the cells were seeded in 96-well plates at 1×10^4 (H1a-luc) or 7.5×10^3 (Zluc) cells/well in a volume of 50 μL, and incubated at 37° C./5% CO2. Three hours after plating, 50 μL of ten 5-fold serial dilutions of compound were added, and cell cultures were incubated at 37° C./5% CO2 for 72 hours. In all cases, Huh-7 cells lacking the HCV replicon served as negative control. To assess luciferase expression, the media/compound was removed from the plates and ONE-glo Luciferase assay reagent (Promega) was added to each well. The assay plates were shaken for 3 minutes at room temperature and luciferase activity for each well was measured with a 1 sec read time on the Victor^3V multilabel counter using a 700 nm cut-off filter (Perkin Elmer). EC50 values were calculated from dose response curves from the resulting best-fit equations determined by Microsoft Excel and XLfit 4.1 software.

Test [2] concerns HCV 1aY93H mutant replicon. The test is described as follows: HCV replicon assay, genotype 1a Y93H mutant. On the procedure:
General procedure: The luciferase replicon transient transfection assay measures the ability of a test compound to inhibit the replication of a transiently-transfected HCV luciferase-bearing wild-type or mutant replicon in cured human hepatoma cells (Huh7.5). The inhibition of HCV replication was measured by quantification of luciferase protein expression. This assay has been validated using a panel of genotype 1a and 1b replicons bearing mutations known to be associated with resistance to BMS-790052. Briefly, subconfluent Huh7.5 cells were electroporated with 10 μg of wild-type or mutant luciferase-bearing HCV replicon RNA. The cells were then seeded in 96-well opaque white plates at 3×10^4 cells/well in 150 μL/well and incubated for 4 hrs at 37° C./5% CO2. Ten 1:5 serial dilutions of each test compound were made in media (DMEM containing glucose, L-glutamine and sodium pyruvate, 10% fetal bovine serum, 100 IU/mL penicillin, 100 μg/mL streptomycin, 2 mM GlutaMAX, and 1×MEM non-essential amino acids (Mediatech, Inc. and Invitrogen Corp.)) at concentrations that were 4× higher than the final concentrations to be tested and 50 μL/well was added to the transfected cells. Untreated, mock-transfected cells served as a negative control of luciferase expression. The plates were incubated at 37° C./5% CO2 for 4 days whereupon the media was removed and 50 μL of ONE-glo luciferase substrate (Promega) was added to each well. The plates were agitated on a rotating platform at room temperature for 3 min and read in a Victor^3V microplate reader (Perkin-Elmer) using a 700 nm cut-off filter with a 1 sec read time. EC50 values were calculated from dose response curves from the resulting best-fit equations determined by Microsoft Excel and XLfit 4.1 software.

Test [3] deals with HCV genotype 3a NS5A within the 1b-replicon. Description: HCV replicon assay, genotype 3a (NS5A intergenotypic stable cell line).
Text: The nucleotide sequences of the NS5A region of genotype 2a (GenBank Accession # AB047639), genotype 3a (GenBank Accession # D17763), and genotype 4a (GenBank Accession # DQ418788) were synthesized by an outside vendor. The NS5A region of each of these genotypes included the first 11 amino acids of the protease recognition sequence of genotype 1b, as well as the last 10 amino acids of genotype 1b. The NS5A gene cassettes were excised with site specific restriction endonucleases and ligated into a ZS11-luciferase genotype 1b backbone (backbone contains the genotype 1b NS3 protease, NS4a, NS4b, and NS5b coding regions) with similarly cut restriction enzyme sites. Thus, the newly constructed plasmid contains a genotype 2a-, 3a- or 4a-specific NS5A gene within the 1b-replicon.
These new intergenotypic plasmids were used to establish stable cell lines. RNA was generated from the NS5A intergenotypic plasmids and used in conjunction with a lipofectin reagent to transfect a cured Huh7 cell line. Transfected cells were selected for with G418. After selection has occurred the stable cell lines were propagated, tested for luciferase activity, and RT-PCR with genotype specific primers (either 1a, 2a, 3a, or 4a). Stable cell lines containing the intergenotypic replicon were then fully sequenced and analyzed for proper expression of NS3, NS5A and NS5B proteins.
Drug titration analysis was performed using the luciferase replicon assay described herein.
as §1
A general note: A replicon is a self-replicating genome or part of one, used to study replication in cells.

In test [4] the test system is HCV 2b. The test is described as follows: HCV replicon assay, genotype 2b. Conditions: Hepatitis C virus, read-out: 2b IC50 (nM), HCV genotype 2b.
Setting [5] is: Hepatitis C virus, read-out: 1a IC50 (nM), HCV genotype 1a.
[6] abbreviates: Hepatitis C virus, read-out: 1aY93H IC50 (nM), HCV genotype 1a, Y93H mutant.

As for `CCC1c2ccc(-c3cnc([C@@H]4CCCN4C(=O)[C@@H](NC(=O)OC)C4CCOCC4)[nH]3)cc2Oc2ccc3cc(-c4cnc([C@@H]5CCCN5C(=O)[C@@H](NC(=O)OC)C5CCOCC5)[nH]4)ccc3c21` (single isomer, unassigned) [Compound 14], the concentration for half-maximal inhibition (IC50) in test [1] (read-out: 1a IC50, HCV genotype 1a) was found to be 0.0042 nM; in test [2] (read-out: 1aY93H IC50, HCV genotype 1a, Y93H mutant) it was 0.221 nM; in test [3] (read-out: 3a IC50, HCV genotype 3a) it was 0.034 nM.
For the compound `COC(=O)N[C@H](C(=O)N1CCC[C@H]1c1ncc(-c2ccc3c(c2)Oc2ccc4cc(-c5cnc([C@@H]6CCCN6C(=O)[C@@H](NC(=O)OC)C(C)C)[nH]5)ccc4c2C3(C)C)[nH]1)C(C)C` [Compound 7, methyl [(1S)-1-({(2S)-2-[5-(3-{2-[(2S)-1-{(2S)-2-[(methoxycarbonyl)amino]-3-methylbutanoyl}pyrrolidin-2-yl]-1H-imidazol-5-yl}-12,12-dimethyl-12H-benzo[a]xanthen-9-yl)-1H-imidazol-2-yl]pyrrolidin-1-yl}carbonyl)-2-methylpropyl]carbamate], the figures for the 50% inhibitory concentration (IC50) in test [1] (setting [5]), in test [2] (setting [6]) and in test [4] were 0.0029 nM, 17.8 nM and 11 nM, respectively.
In the case of `COC(=O)N[C@H](C(=O)N1CCC[C@H]1c1ncc(-c2ccc3c(ccc4oc5cc(-c6cnc([C@@H]7CCCN7C(=O)[C@@H](NC(=O)OC)C7CCOCC7)[nH]6)ccc5c(=O)c43)c2)[nH]1)C1CCOCC1` [Compound 30, dimethyl [(12-oxo-12H-benzo[a]xanthene-3,9-diyl)bis{1H-imidazole-5,2-diyl(2S)pyrrolidine-2,1-diyl[(1S)-2-oxo-1-(tetrahydro-2H-pyran-4-yl)ethane-2,1-diyl]}]biscarbamate], the concentration for half-maximal inhibition (IC50) worked out at 0.0416 nM in test [1] (setting [5]); 2.03 nM in test [2] (setting [6]); 0.481 nM in test [4]; 0.722 nM in test [3] (Hepatitis C virus, read-out: 3a IC50 (nM), HCV genotype 3a).
As for `CC(C)(C)NC(=O)N1CC(F)C[C@H]1c1ncc(-c2ccc3c(ccc4oc5cc(-c6cnc([C@@H]7C[C@@H](F)CN7C(=O)NC(C)(C)C)[nH]6)ccc5c(=O)c43)c2)[nH]1` (stereo in doubt) [Compound 21, (2S,4R,2′S,4′S)-2,2′-[(12-oxo-12H-benzo[a]xanthene-3,9-diyl)bis(1H-imidazole-5,2-diyl)]bis(N-tert-butyl-4-fluoropyrrolidine-1-carboxamide)], the IC50 in test [1] (setting [5]) came to 63.1 nM; in test [2] (setting [6]) it was 96.2 nM; in test [4] it was 505 nM.
On the same counts, the results for `CC(C)(C)NC(=O)N1CC(F)C[C@H]1c1ncc(-c2ccc3c(F)c4oc5ccc(-c6cnc([C@@H]7CC(F)CN7C(=O)NC(C)(C)C)[nH]6)cc5c(=O)c4cc3c2)[nH]1` (stereo in doubt) [Compound 23, (2S,4S,2′S,4′S)-2,2′-[(6-fluoro-12-oxo-12H-benzo[b]xanthene-2,9-diyl)bis(1H-imidazole-5,2-diyl)]bis(N-tert-butyl-4-fluoropyrrolidine-1-carboxamide)] are 53.5 nM, 436 nM and not below 1000 nM.
Consider `COC(=O)N[C@H](C(=O)N1CCC[C@@H]1c1ncc(-c2ccc3oc4c(ccc5cc(-c6cnc([C@H]7CCCN7C(=O)[C@H](NC(=O)OC)C(C)C)[nH]6)ccc54)c(=O)c3c2)[nH]1)C(C)C` [Compound 1, methyl [(1R)-1-({(2R)-2-[5-(9-{2-[(2R)-1-{(2S)-2-[(methoxycarbonyl)amino]-3-methylbutanoyl}pyrrolidin-2-yl]-1H-imidazol-5-yl}-7-oxo-7H-benzo[c]xanthen-3-yl)-1H-imidazol-2-yl]pyrrolidin-1-yl}carbonyl)-2-methylpropyl]carbamate], for which the IC50 in test [1] (setting [5]) worked out at 0.0204 nM; in test [2] (setting [6]), 66 nM.
On the same counts, the results for `COC(=O)N[C@H](C(=O)N1CCC[C@H]1c1ncc(-c2ccc3c(c2)C(C)c2ccc4cc(-c5cnc([C@@H]6CCCN6C(=O)[C@@H](NC(=O)OC)C(C)C)[nH]5)ccc4c2O3)[nH]1)C(C)C` (stereo partly drawn) [Compound 4, methyl [(1S)-1-({(2S)-2-[5-(3-{2-[(2S)-1-{(2S)-2-[(methoxycarbonyl)amino]-3-methylbutanoyl}pyrrolidin-2-yl]-1H-imidazol-5-yl}-7-methyl-7H-benzo[c]xanthen-9-yl)-1H-imidazol-2-yl]pyrrolidin-1-yl}carbonyl)-2-methylpropyl]carbamate] are 0.0057 nM and 48.8 nM.
For `CC(C)(C)OC(=O)N1CC(F)C[C@H]1c1ncc(-c2ccc3c(ccc4oc5cc(-c6cnc([C@@H]7C[C@@H](F)CN7C(=O)OC(C)(C)C)[nH]6)ccc5c(=O)c43)c2)[nH]1` (stereo in doubt) [Compound 22, di-tert-butyl (2S,4R,2′S,4′S)-2,2′-[(12-oxo-12H-benzo[a]xanthene-3,9-diyl)bis(1H-imidazole-5,2-diyl)]bis(4-fluoropyrrolidine-1-carboxylate)] the same measures were 291 nM and 717 nM.
Consider `O=c1c2ccc(-c3cnc([C@@H]4CC(F)CN4)[nH]3)cc2oc2ccc3cc(-c4cnc([C@@H]5C[C@@H](F)CN5)[nH]4)ccc3c12` (stereo in doubt) [Compound 18, 3-{2-[(2S,4R)-4-fluoropyrrolidin-2-yl]-1H-imidazol-5-yl}-9-{2-[(2S,4S)-4-fluoropyrrolidin-2-yl]-1H-imidazol-5-yl}-12H-benzo[a]xanthen-12-one], for which the concentration for half-maximal inhibition (IC50) turned out to be 208 nM in test [1] (setting [5]) and 147 nM in test [2] (setting [6]).
For `CC(C)(C)OC(=O)N1CC(F)C[C@H]1c1ncc(-c2ccc3c(F)c4oc5ccc(-c6cnc([C@@H]7CC(F)CN7C(=O)OC(C)(C)C)[nH]6)cc5c(=O)c4cc3c2)[nH]1` (stereo in doubt) [Compound 24, di-tert-butyl (2S,4S,2′S,4′S)-2,2′-[(6-fluoro-12-oxo-12H-benzo[b]xanthene-2,9-diyl)bis(1H-imidazole-5,2-diyl)]bis(4-fluoropyrrolidine-1-carboxylate)] the same measures were 425 nM and 2460 nM.
With `O=c1c2cc(-c3cnc([C@@H]4CC(F)CN4)[nH]3)ccc2oc2c(F)c3ccc(-c4cnc([C@@H]5CC(F)CN5)[nH]4)cc3cc12` (stereo in doubt) [Compound 19, 6-fluoro-2,9-bis{2-[(2S,4S)-4-fluoropyrrolidin-2-yl]-1H-imidazol-5-yl}-12H-benzo[b]xanthen-12-one], the IC50 was 745 nM in test [1] (setting [5]) and 1390 nM in test [2] (setting [6]).
